According to patent US10034879B2, “Substituted benzaldehyde compounds and methods for their use in increasing tissue oxygenation” (Global Blood Therapeutics, Inc., priority 2011, dated 2018):

molecular target: T1, HbS/A (Homo sapiens, UniProt P68871+P69905, E7V); test: Relaxed-to-tense transition assay (R/T assay); format: biochemical; settings: compound at 9 μM; 3 μM HbS/A
T1 construct: A mixture of HbS/A was purified from blood; from tissue; host or cells: blood of homozygous sickle cell patients
Method: A relaxed-to-tense transition assay (“R/T assay”) was used to determine the ability of substituted benzaldehyde compounds to maintain the high-oxygen affinity relaxed (R) state of hemoglobin under deoxygenated conditions. This ability can be expressed as a “delta R” value (i.e., the change in the time-period of the R state after hemoglobin is treated with a compound, as compared to the period without treatment with the compound). Delta R is the % R to remaining after the compounds treatment compared with no treatment (e.g. if R % without treatment is 8% while with treatment with a target compound is 48% R at 30 μM, then % R is 40% for that compound.
A mixture of HbS/A was purified from blood obtained from homozygous sickle cell patients though the Hemoglobinopathy Center at Children's Hospital Oakland Research Institute (CHORI) with Institutional Review Board approval. HbS/A (at a final concentration of 3 μM) was incubated for 1 hr at 37° C. in presence or absence of compounds in […] potassium phosphate buffer, pH=7.4 and 30 μM 2, 3 diphosphoglycerate (DPG) in 96 well plates in a final volume of 160 μl. Compounds were added at different concentrations (3 μM to 100 μM final concentrations). Plates were covered with a Mylar film. After incubation was completed the Mylar cover was removed and the plates were placed in a Spectrostar Nano plate reader previously heated at 37° C. Five minutes later, N2 (flow rate=20 L/min) was flowed through the spectrophotometer. Spectroscopic measurements (300 nm to 700 nm) were taken every 5 min for 2 hours. Data analysis was performed by using linear regression from the data retrieved for all wavelengths.
Table 4 below lists the delta R values where + indicates a delta R of between 0 and 30, ++ indicates a delta R of between 30 and 50, and +++ indicates a delta R of 50 or greater. Unless noted otherwise, the compounds in Table 2 were tested at 9 μM.

Compound | delta R (%)
COc1ccc(OCc2cn3cccc(C)c3n2)c(C=O)c1 [Compound 24, 5-methoxy-2-((8-methylimidazo[1,2-a]pyridin-2-yl)methoxy)benzaldehyde] | + (+ indicates a delta R of between 0 and 30)
COc1ccc(OCc2cn3ccccc3n2)c(C=O)c1 [Compound 5, 2-(imidazo[1,2-a]pyridin-2-ylmethoxy)-5-methoxybenzaldehyde] | ++ (++ indicates a delta R of between 30 and 50)
COc1ccc(OCc2cccc3ncccc23)c(C=O)c1 [Compound 10, 5-methoxy-2-(quinolin-5-ylmethoxy)benzaldehyde] | ++ (++ indicates a delta R of between 30 and 50)
COc1ccc(OCc2cccnc2)c(C=O)c1 [Compound 41, 5-methoxy-2-(pyridin-3-ylmethoxy)benzaldehyde] | + (+ indicates a delta R of between 0 and 30)
COc1ccc(OCc2cccc3[nH]ncc23)c(C=O)c1 [Compound 25, 2-((1H-indazol-4-yl)methoxy)-5-methoxybenzaldehyde] | ++ (++ indicates a delta R of between 30 and 50)

molecular target: T2, purified Hemoglobin S (HbS) (Homo sapiens, UniProt P68871+P69905, E7V); test: Oxygen equilibrium curves (OEC) in purified HbS, HEMOX analyzer, change in p50; format: biochemical; settings: compound at 30 μM; 25 μM purified HbS
T2 construct: HbS was purified by a modified procedure; from tissue; host or cells: blood of homozygous sickle cell patients
Method: Oxygen equilibrium curves (OEC) in purified Hemoglobin S (HbS) were measured by the change in p50, the partial pressure of oxygen at which the heme binding sites in the HbS sample are 50% saturated with oxygen. HbS was purified by a modified procedure (Antonini and Brunori, 1971; Heomoglobin and Myoglobin in their Reactions with Ligands; North Holland Publishing Company; Amsterdam, London) from blood obtained from homozygous sickle cell patients though the Hemoglobinopathy Center at Children's Hospital Oakland Research Institute (CHORI) with Institutional Review Board approval. Oxygen equilibrium curves were carried out with a HEMOX analyzer, (TCS Scientific, New Hope, Pa.). Five hundred μL of 250 μM purified HbS were diluted into 4.5 mL of HEMOX buffer (30 mM TES, 130 mM NaCl, 5 mM KCl, pH=7.4) resulting in a final hemoglobin concentration of 25 μM. The compounds were added at the final desired concentrations. The mixture was incubated for 45 min at 37° C. and then transferred to the Hemox sample chamber. The samples were saturated with oxygen by flushing with compressed air for 10 minutes. The samples were then flushed with pure nitrogen and the absorbance of deoxy-Hb was recorded as a function of the solution pO2. The oxygen equilibrium data was then fit to the Hill Model to obtain values for p50. The deoxygenation curves for both HbS alone (control) and HbS in the presence of compound were collected with the TCS software. The p50 for purified Hbs was typically 13.8±1.6. Delta p50 values were obtained from the p50 value for control minus the p50 value for HbS treated with compound divided by the p50 value for the control.
The compounds of Table 1 that were where tested in the assay above were all found to have positive delta p50 values. Delta p50% is calculated from [[p50(HbS)−p50(HbS treated with compound)]/p50(HbS)]×100. Table 2 below lists the delta p50% values where + indicates a delta p50% of between 0 and 29 and ++ indicates a delta p50% of 30 or greater. Unless noted otherwise, the compounds in Table 2 were tested at 30 μM.

Compound | delta p50
N#Cc1ccc(OCc2cccn3ccnc23)c(C=O)c1 [Compound 35, 3-formyl-4-(imidazo[1,2-a]pyridin-8-ylmethoxy)benzonitrile] | + (+ indicates a delta p50% of between 0 and 29)
COc1ccc(OCc2cn3cccc(C)c3n2)c(C=O)c1 [Compound 24, 5-methoxy-2-((8-methylimidazo[1,2-a]pyridin-2-yl)methoxy)benzaldehyde] | ++ (++ indicates a delta p50% of 30 or greater)
COc1ccc(OCc2cn3ccccc3n2)c(C=O)c1 [Compound 5, 2-(imidazo[1,2-a]pyridin-2-ylmethoxy)-5-methoxybenzaldehyde] | ++ (++ indicates a delta p50% of 30 or greater)
O=Cc1ccccc1OCc1cccn2ccnc12 [Compound 13, 2-(imidazo[1,2-a]pyridin-8-ylmethoxy)benzaldehyde] | + (+ indicates a delta p50% of between 0 and 29)
COc1ccc(OCc2cccn3cncc23)c(C=O)c1 [Compound 7, 2-(imidazo[1,5-a]pyridin-8-ylmethoxy)-5-methoxybenzaldehyde] | ++ (++ indicates a delta p50% of 30 or greater)
O=Cc1cc(Br)ccc1OCc1cccn2ccnc12 [Compound 11, 5-bromo-2-(imidazo[1,2-a]pyridin-8-ylmethoxy)benzaldehyde] | + (+ indicates a delta p50% of between 0 and 29)
COc1ccc(OCc2ccc3cncn3c2)c(C=O)c1 [Compound 34, 2-(imidazo[1,5-a]pyridin-6-ylmethoxy)-5-methoxybenzaldehyde] | + (+ indicates a delta p50% of between 0 and 29)
COc1ccc(OCc2ccc3nccn3c2)c(C=O)c1 [Compound 4, 2-(imidazo[1,2-a]pyridin-6-ylmethoxy)-5-methoxybenzaldehyde] | + (+ indicates a delta p50% of between 0 and 29)
O=Cc1ccc(F)cc1OCc1cccn2ccnc12 [Compound 14, 4-fluoro-2-(imidazo[1,2-a]pyridin-8-ylmethoxy)benzaldehyde] | + (+ indicates a delta p50% of between 0 and 29)
COc1ccc(OCc2ccn3ccnc3c2)c(C=O)c1 [Compound 8, 2-(imidazo[1,2-a]pyridin-7-ylmethoxy)-5-methoxybenzaldehyde] | + (+ indicates a delta p50% of between 0 and 29)
COc1ccc(OCc2cccc3ncccc23)c(C=O)c1 [Compound 10, 5-methoxy-2-(quinolin-5-ylmethoxy)benzaldehyde] | ++ (++ indicates a delta p50% of 30 or greater)
COc1ccc(OCc2cccc3c2cnn3C)c(C=O)c1 [Compound 23, 5-methoxy-2-((1-methyl-1H-indazol-4-yl)methoxy)benzaldehyde] | ++ (++ indicates a delta p50% of 30 or greater)
COc1ccc(OCc2cccc3[nH]ncc23)c(C=O)c1 [Compound 25, 2-((1H-indazol-4-yl)methoxy)-5-methoxybenzaldehyde] | ++ (++ indicates a delta p50% of 30 or greater)
O=Cc1ccccc1C(=O)Nc1cccn2ccnc12 [Compound 40, 2-formyl-N-(imidazo[1,2-a]pyridin-8-yl)benzamide] | + (+ indicates a delta p50% of between 0 and 29)
N#Cc1ccc(C=O)c(OCc2cccn3ccnc23)c1 [Compound 2, 4-formyl-3-(imidazo[1,2-a]pyridin-8-ylmethoxy)benzonitrile] | + (+ indicates a delta p50% of between 0 and 29)
COc1ccc(OCc2cccn3ccnc23)c(C=O)c1 [Compound 1, 2-(imidazo[1,2-a]pyridin-8-ylmethoxy)-5-methoxybenzaldehyde] | ++ (++ indicates a delta p50% of 30 or greater)
COc1ccc(OCc2cccc3nccn23)c(C=O)c1 [Compound 37, 2-(imidazo[1,2-a]pyridin-5-ylmethoxy)-5-methoxybenzaldehyde] | + (+ indicates a delta p50% of between 0 and 29)
COc1ccc(OCc2cnc3ccccn23)c(C=O)c1 [Compound 9, 2-(imidazo[1,2-a]pyridin-3-ylmethoxy)-5-methoxybenzaldehyde] | + (+ indicates a delta p50% of between 0 and 29)
Cc1ccc(OCc2cccn3ccnc23)c(C=O)c1 [Compound 16, 2-(imidazo[1,2-a]pyridin-8-ylmethoxy)-5-methylbenzaldehyde] | + (+ indicates a delta p50% of between 0 and 29)

same assay, conditions: compound at 100 μM; 25 μM purified HbS

Compound | delta p50
O=Cc1ccc(Cl)cc1OCc1cccn2ccnc12 [Compound 12, 4-chloro-2-(imidazo[1,2-a]pyridin-8-ylmethoxy)benzaldehyde] | + (100 μM) (+ indicates a delta p50% of between 0 and 29)
COc1ccc(NC(=O)c2cccn3ccnc23)c(C=O)c1 [Compound 38, N-(2-formyl-4-methoxyphenyl)imidazo[1,2-a]pyridine-8-carboxamide] | ++ (100 μM) (++ indicates a delta p50% of 30 or greater)
COc1ccc(C=O)c(OCc2cccn3ccnc23)c1 [Compound 3, 2-(imidazo[1,2-a]pyridin-8-ylmethoxy)-4-methoxybenzaldehyde] | + (100 μM) (+ indicates a delta p50% of between 0 and 29)
COc1cccc(C=O)c1OCc1cccn2ccnc12 [Compound 15, 2-(imidazo[1,2-a]pyridin-8-ylmethoxy)-3-methoxybenzaldehyde] | + (100 μM) (+ indicates a delta p50% of between 0 and 29)
O=Cc1ccccc1NC(=O)c1cccn2ccnc12 [Compound 39, N-(2-formylphenyl)imidazo[1,2-a]pyridine-8-carboxamide] | + (100 μM) (+ indicates a delta p50% of between 0 and 29)
COc1ccc(OCc2ccc3cnccn23)c(C=O)c1 [Compound 33, 5-methoxy-2-(pyrrolo[1,2-a]pyrazin-6-ylmethoxy)benzaldehyde] | + (100 μM) (+ indicates a delta p50% of between 0 and 29)
COc1ccc(C=O)c(OCc2cccn3cncc23)c1 [Compound 6, 2-(imidazo[1,5-a]pyridin-8-ylmethoxy)-4-methoxybenzaldehyde] | + (100 μM) (+ indicates a delta p50% of between 0 and 29)
COc1ccc(OCc2ccnc3[nH]ccc23)c(C=O)c1 [Compound 21, 2-((1H-pyrrolo[2,3-b]pyridin-4-yl)methoxy)-5-methoxybenzaldehyde] | + (100 μM) (+ indicates a delta p50% of between 0 and 29)
